Read-outs that look alike come from different tables or passages of the source. Numbered stars: 1 amine (or outer) side, 2 acyl side, 3 side chain; on linkers, the order of the positions; unused ones are H or OH. Bridge positions count the residues as written; N and C are the ends. Square brackets hold non-standard residues; d marks the D form. Peptide text beside a SMILES is read from it. * marks the point of attachment. TtdsdLys(DOTA)NH2 = NC(=O)[C@@H](CCCCNC(=O)CN1CCN(CC(=O)O)CCN(CC(=O)O)CCN(CC(=O)O)CC1)NC(=O)CCC(=O)NCCCOCCOCCOCCCN*; X7 = O=C(O)CN1CCN(CC(=O)O)CCN(CC(=O)NC2CCN(CC(=O)*)CC2)CCN(CC(=O)O)CC1; DOTA = O=C(O)CN1CCN(CC(=O)O)CCN(CC(=O)*)CCN(CC(=O)O)CC1; Phe(4-Cl) = N[C@@H](Cc1ccc(Cl)cc1)C(=O)O; Phe(3-F) = N[C@@H](Cc1cccc(F)c1)C(=O)O; Arg(Me) = CNC(=N)NCCC[C@H](N)C(=O)O; X1 = O=C(CC1CCN([*:1])CC1)[*:2]; Lys(Me) = CNCCCC[C@H](N)C(=O)O; Tle = CC(C)(C)[C@H](N)C(=O)O; Propanoyl(3-OH) = O=C(CCO)*; αMeS = C[C@](N)(CO)C(=O)O; Orn = NCCC[C@H](N)C(=O)O; Aib = CC(C)(N)C(=O)O

Here are results for six molecules from patent US20260083865A1, “PROSTATE SPECIFIC MEMBRANE ANTIGEN (PSMA) LIGANDS AND USE THEREOF” (priority 2022, published 2026).

Assay [1] addresses T1, Fc-fusion protein of human PSMA (hPSMA-Fc) (Homo sapiens, UniProt Q04609).
T1 construct: purchased Acro Biosystems PSA-H5264
Description: Surface plasmon resonance assay (Biacore T200, single cycle kinetic). Type of assay: binding. The note with it: hPSMA-Fc, 25° C., read-out: pKD CAT (converted). Summed up: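 KD, expressed as pKD, came from 1:1 Langmuir fits of reference- and buffer-blank-subtracted SPR data. The runs were single-cycle kinetics at 25° C in HBST/0.1% DMSO over human PSMA-Fc, captured to ~1000 RU on a peptide-coated CM5 surface and regenerated with 10 mM glycine pH 1.5.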
For orientation: In SPR one partner is held on a chip, and binding of the other changes the refractive index at the surface.

Assay [2] has as its target T2, PSMA-expressing C4-2 cells (Homo sapiens, UniProt Q04609).
T2 construct: PSMA-expressing C4-2 cells (ATCC, Cat. No. CRL-3314) were cultured in RPMI-1640; host or cells: C4-2 cells
Description: FACS binding assay (competition with 50 nM PSM-0183). The note with it: read-out: pIC50 [C4-2] CAT (converted). Summed up:
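Competition format: fluorescent tracer PSM-0183 (50 nM) displaced from PSMA on C4-2 cells by a test compound titration over 1 h at 4 °C. Bound tracer was quantified as flow-cytometric AF488 median fluorescence after washing. Four-parameter logistic fits of MFI data gave IC50 and pIC50.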

Where [3] appears, read: pKD category for PSMA SPR activity assay.
Where [4] appears, read: pIC50 category of FACS binding, C4-2 cells.

T2 sequence (Q04609 whole entry): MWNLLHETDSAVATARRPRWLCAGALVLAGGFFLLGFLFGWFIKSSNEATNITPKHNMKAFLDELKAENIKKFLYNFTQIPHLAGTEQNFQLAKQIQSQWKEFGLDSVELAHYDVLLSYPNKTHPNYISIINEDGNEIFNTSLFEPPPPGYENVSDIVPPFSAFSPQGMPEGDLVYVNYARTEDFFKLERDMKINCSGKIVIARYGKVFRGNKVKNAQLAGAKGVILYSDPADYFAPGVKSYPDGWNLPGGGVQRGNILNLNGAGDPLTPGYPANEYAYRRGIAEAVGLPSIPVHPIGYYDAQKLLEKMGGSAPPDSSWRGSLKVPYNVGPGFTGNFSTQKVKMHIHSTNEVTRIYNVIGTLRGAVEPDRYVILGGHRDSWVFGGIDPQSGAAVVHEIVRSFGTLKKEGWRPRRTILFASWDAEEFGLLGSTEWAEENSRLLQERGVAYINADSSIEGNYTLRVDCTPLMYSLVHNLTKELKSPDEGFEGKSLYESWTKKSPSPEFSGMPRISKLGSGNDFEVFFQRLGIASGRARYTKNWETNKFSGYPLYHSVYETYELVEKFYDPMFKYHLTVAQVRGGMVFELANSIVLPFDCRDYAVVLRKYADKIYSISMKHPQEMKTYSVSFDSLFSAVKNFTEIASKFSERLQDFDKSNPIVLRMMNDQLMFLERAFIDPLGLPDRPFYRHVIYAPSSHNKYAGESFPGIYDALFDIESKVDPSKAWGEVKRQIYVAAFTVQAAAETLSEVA
T1 sequence (Q04609 44-750 limits assumed): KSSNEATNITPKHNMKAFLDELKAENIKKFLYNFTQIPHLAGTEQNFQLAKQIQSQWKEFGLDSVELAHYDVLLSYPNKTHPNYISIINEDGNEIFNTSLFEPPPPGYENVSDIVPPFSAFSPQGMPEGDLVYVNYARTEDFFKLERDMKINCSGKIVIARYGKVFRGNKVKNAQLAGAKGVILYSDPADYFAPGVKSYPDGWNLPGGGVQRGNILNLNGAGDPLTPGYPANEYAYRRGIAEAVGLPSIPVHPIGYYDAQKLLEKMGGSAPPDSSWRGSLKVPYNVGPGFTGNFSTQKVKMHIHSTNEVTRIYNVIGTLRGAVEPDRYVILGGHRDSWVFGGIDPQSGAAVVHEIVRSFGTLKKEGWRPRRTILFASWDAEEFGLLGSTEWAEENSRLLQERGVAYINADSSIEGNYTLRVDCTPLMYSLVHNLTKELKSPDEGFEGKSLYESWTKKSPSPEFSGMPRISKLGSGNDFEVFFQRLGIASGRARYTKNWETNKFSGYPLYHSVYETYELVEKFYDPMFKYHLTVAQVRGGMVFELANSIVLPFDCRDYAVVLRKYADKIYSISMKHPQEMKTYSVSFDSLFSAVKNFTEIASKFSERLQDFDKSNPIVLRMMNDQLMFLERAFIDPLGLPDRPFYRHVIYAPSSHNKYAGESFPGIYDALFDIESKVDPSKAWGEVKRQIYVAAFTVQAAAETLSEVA

On to `CC(=O)N[C@H](C(=O)NC(C)(C)C(=O)N[C@@H](Cc1ccccc1)C(=O)N[C@H]1CSSC[C@@H](C(=O)N[C@H](C(=O)N[C@H](C(=O)N[C@@H](CC(=O)O)C(N)=O)[C@@H](C)O)C(C)(C)C)NC(=O)[C@H](CC(N)=O)NC(=O)[C@H](C)NC(=O)[C@H](CCCNC(=N)N)NC(=O)[C@@H](CCCCN)NC1=O)[C@@H](C)O` [PSM-0535, Ac-Thr-Aib-Phe-[Cys-lys-Arg-Ala-Asn-Cys]-Tle-Thr-Asp-NH2] (Ac-T[Aib]FC[dK]RANC[Tle]TD-NH2; disulfide 4-9), for which the Kd in assay [1] (setting [3]) was less than 12.6 nM. Besides, the IC50 in assay [2] (setting [4]) was 200 to 1260 nM.

Consider `C[C@@H](O)[C@H](NC(=O)[C@@H](NC(=O)[C@@H]1CSSC[C@H](NC(=O)[C@H](Cc2ccc(Cl)cc2)NC(=O)[C@](C)(CO)NC(=O)[C@@H](NC(=O)CC2CCN(C(=O)CN3CCN(CC(=O)O)CCN(CC(=O)O)CCN(CC(=O)O)CC3)CC2)[C@@H](C)O)C(=O)N[C@@H](CCCCN)C(=O)N[C@@H](CCCNC(=N)N)C(=O)NC(C)(C)C(=O)N[C@@H](CC(N)=O)C(=O)N1)C(C)(C)C)C(N)=O` [PSM-0369, DOTA-Cmp-Thr-Ams-Pcf-[Cys-Lys-Arg-Aib-Asn-Cys]-Tle-Thr-NH2] ({DOTA}-[X1]T[αMeS][Phe(4-Cl)]CKR[Aib]NC[Tle]T-NH2; disulfide 5-10), for which, in assay [1] (setting [3]), the Kd is less than 12.6 nM. Further, in assay [2] (setting [4]), the IC50 was less than 200 nM.

As for `C[C@@H](O)[C@H](NC(=O)[C@@H](NC(=O)[C@@H]1CSSC[C@H](NC(=O)[C@H](Cc2ccc(Cl)cc2)NC(=O)C(C)(C)NC(=O)[C@@H](NC(=O)CC2CCN(C(=O)CN3CCN(CC(=O)O)CCN(CC(=O)O)CCN(CC(=O)O)CC3)CC2)[C@@H](C)O)C(=O)N[C@@H](CCCN)C(=O)N[C@@H](CCCNC(=N)N)C(=O)NC(C)(C)C(=O)N[C@@H](CC(N)=O)C(=O)N1)C(C)(C)C)C(N)=O` [PSM-0511, DOTA-Cmp-Thr-Aib-Pcf-[Cys-Om-Arg-Aib-Asn-Cys]-Tle-Thr-NH2] ({DOTA}-[X1]T[Aib][Phe(4-Cl)]C[Orn]R[Aib]NC[Tle]T-NH2; disulfide 5-10), the Kd in assay [1] (setting [3]) is less than 12.6 nM. Moreover, in assay [2] (setting [4]), the IC50 was less than 200 nM.

`C[C@@H](O)[C@H](NC(=O)[C@@H](NC(=O)[C@@H]1CSSC[C@H](NC(=O)[C@H](Cc2ccc(Cl)cc2)NC(=O)C(C)(C)NC(=O)CCO)C(=O)N[C@@H](CCCCN)C(=O)N[C@@H](CCCNC(=N)N)C(=O)N[C@@H](CCCCNC(=O)CN2CCC(NC(=O)CN3CCN(CC(=O)O)CCN(CC(=O)O)CCN(CC(=O)O)CC3)CC2)C(=O)N[C@@H](CC(N)=O)C(=O)N1)C(C)(C)C)C(N)=O` [PSM-0324, HPA-Aib-Pcf-[Cys-Lys-Arg-Lys(DOTA-APAc)-Asn-Cys]-Tle-Thr-NH2] ({Propanoyl(3-OH)}-[Aib][Phe(4-Cl)]CKRK(X7)NC[Tle]T-NH2; disulfide 3-8): in assay [1] (PSMA SPR assay, pKD category), the Kd was less than 12.6 nM. The IC50 in assay [2] (FACS binding, PSMA-expressing C4-2 cells, pIC50 category) is less than 200 nM.

Take `CC(=O)N[C@H](C(=O)N[C@@H](C)C(=O)N[C@@H](Cc1ccccc1)C(=O)N[C@H]1CSSC[C@@H](C(=O)N[C@H](C(=O)N[C@H](C(=O)N[C@@H](CC(=O)O)C(=O)NCCCOCCOCCOCCCNC(=O)CCC(=O)N[C@H](CCCCNC(=O)CN2CCN(CC(=O)O)CCN(CC(=O)O)CCN(CC(=O)O)CC2)C(N)=O)[C@@H](C)O)C(C)(C)C)NC(=O)[C@H](CC(N)=O)NC(=O)[C@H](C)NC(=O)[C@H](CCCNC(=N)N)NC(=O)[C@H](CCCCN)NC1=O)[C@@H](C)O` [PSM-0266, Ac-Thr-Ala-Phe-[Cys-Lys-Arg-Ala-Asn-Cys]-Tle-Thr-Asp-Ttds-lys(DOTA)-NH2] (Ac-TAFCKRANC[Tle]TD-{TtdsdLys(DOTA)NH2}; disulfide 4-9): the Kd in assay [1] (SPR, single cycle kinetic, category) is 12.6 to 126 nM. In addition, the IC50 in assay [2] (FACS binding, C4-2 cells, competition with 50 nM PSM-0183, category) was less than 200 nM.

On to `CNCCCC[C@@H]1NC(=O)[C@@H](NC(=O)[C@H](Cc2cccc(F)c2)NC(=O)C(C)(C)NC(=O)[C@@H](NC(=O)CC2CCN(C(=O)CN3CCN(CC(=O)O)CCN(CC(=O)O)CCN(CC(=O)O)CC3)CC2)[C@@H](C)O)CSSC[C@@H](C(=O)N[C@H](C(N)=O)C(C)(C)C)NC(=O)[C@H](CC(N)=O)NC(=O)C(C)(C)NC(=O)[C@H](CCCNC(=N)NC)NC1=O` [PSM-0553, DOTA-Cmp-Thr-Aib-Mff-[Cys-Lys(Me)-Arg(Me)-Aib-Asn-Cys]-Tle-NH2] ({DOTA}-[X1]T[Aib][Phe(3-F)]C[Lys(Me)][Arg(Me)][Aib]NC[Tle]-NH2; disulfide 5-10), for which, in assay [1] (setting [3]), the Kd is 12.6 to 126 nM. The IC50 in assay [2] (setting [4]) was less than 200 nM.
